Converted amounts (≈) assume the structure as drawn.
Legend:
[1] = test system: Trichophyton mentagr.; assay: Antimycotic in vitro activity, series dilution test (MIC); assay type: cell-based, Trichophyton mentagrophytes; conditions: 5×10^4 germs/ml, Sabouraud's milieu d'épreuve, 20° C., 96 hours, read-out: MIC values in γ/ml of nutrient medium, Trichophyton mentagr.
Experimental: (§1) Antimycotic in vitro activity Description of the experiment: The in vitro tests were carried out in a series dilution test with germ inocula of an average of 5×10^4 germs/ml of substrate. The nutrient medium was (a) for dermatophytes and moulds: Sabouraud's milieu d'/e/ preuve and The incubation temperature was 20° C. and the duration of incubation was 24 to 96 hours, in the case of yeasts, and 96 hours in the case of dermatophytes and moulds.

[2] = test system: Microsporum canis; assay: as above; assay type: cell-based; conditions: 5×10^4 germs/ml, Sabouraud's milieu d'épreuve, 20° C., 96 hours, read-out: MIC values in γ/ml of nutrient medium, Microsporum canis
Experimental: as §1

[3] = test system: Candida albicans; assay: as above; assay type: cell-based; conditions: 5×10^4 germs/ml, meat extract/glucose broth, 20° C., 24 to 96 hours, read-out: MIC values in γ/ml of nutrient medium, Candida albicans
Experimental: as §1, with “(b)” for “(a)”, “yeasts: meat extract/glucose broth.” for “dermatophytes and moulds: Sabouraud's milieu d'/e/ preuve and”

[4] = test system: Torulopsis glabrata; assay: as above; assay type: cell-based; conditions: Nakaseomyces glabratus, 5×10^4 germs/ml, meat extract/glucose broth, 20° C., 24 to 96 hours, read-out: MIC values in γ/ml of nutrient medium, Torulopsis glabrata
Experimental: as §1, with “(b)” for “(a)”, “yeasts: meat extract/glucose broth.” for “dermatophytes and moulds: Sabouraud's milieu d'/e/ preuve and”

[5] = test system: Aspergillus fumig.; assay: as above; assay type: cell-based, Aspergillus fumigatus; conditions: 5×10^4 germs/ml, Sabouraud's milieu d'épreuve, 20° C., 96 hours, read-out: MIC values in γ/ml of nutrient medium, Aspergillus fumig.
Experimental: as §1

[6] = test system: dermatophytes and moulds, yeasts; assay: Antimycotic in vitro activity, overall comparison with known compounds; assay type: cell-based; conditions: in vitro series dilution test
Experimental: Antimycotic in vitro activity
Description of the experiment:
The in vitro tests were carried out in a series dilution test with germ inocula of an average of 5×10^4 germs/ml of substrate. The nutrient medium was
(a) for dermatophytes and moulds:
Sabouraud's milieu d'/e/ preuve and
meat extract/glucose broth.
The incubation temperature was 20° C. and the duration of incubation was 24 to 96 hours, in the case of yeasts, and 96 hours in the case of dermatophytes and moulds.

Compound | MIC [1] [µg/mL] | MIC [2] [µg/mL] | MIC [3] [µg/mL] | MIC [4] [µg/mL] | MIC [5] [µg/mL] | antimycotic action compared with compounds (A), (B), (C) and (D) [6]
CC(C)(C)C(O)C(=Cn1ccnc1)Oc1ccc(Cl)cc1Cl (centres unmarked) [(C), reference compound] | < 1 | 32 (≈ 93.8 µM) | 16 (≈ 46.9 µM) | 16 (≈ 46.9 µM) | > 64 | 
CC1(C)CCOC1=C(Oc1ccc(Cl)cc1)n1ccnc1 [Example 1, (4-chlorophenoxy)-(imidazol-1-yl)-3,3-dimethyltetrahydrofuran-2-ylidene-methane] | < 1 | < 1 | 8 (≈ 26.2 µM) | 2 (≈ 6.56 µM) | < 1 | better antimycotic action
CC1(C)CCOC1=C(Oc1ccc(F)cc1)n1ccnc1 [Example 2] | < 1 | < 1 | < 1 | 2 (≈ 6.94 µM) | 2 (≈ 6.94 µM) | better antimycotic action
CC1(C)CCOC1=C(Oc1ccc(-c2ccccc2)cc1)n1ccnc1 [Example 7] | < 1 | < 1 | < 1 | < 1 | < 1 | better antimycotic action

Second part, led by results:

MIC [1] [µg/mL] | MIC [2] [µg/mL] | MIC [3] [µg/mL] | MIC [4] [µg/mL] | MIC [5] [µg/mL] | Compound | antimycotic action compared with compounds (A), (B), (C) and (D) [6]
1 (≈ 3.44 µM) | 64 (≈ 220 µM) | 32 (≈ 110 µM) | 64 (≈ 220 µM) | > 64 | CC(C)(C)C(O)C(=Cn1ccnc1)Oc1ccc(F)cc1 (centres unmarked) [(A), reference compound] | 
< 1 | 32 (≈ 91.8 µM) | 32 (≈ 91.8 µM) | > 64 | > 64 | CC(C)(C)C(O)C(=Cn1ccnc1)Oc1ccc(-c2ccccc2)cc1 (centres unmarked) [(B), reference compound] | 
< 1 | 64 (≈ 187 µM) | 32 (≈ 93.5 µM) | 32 (≈ 93.5 µM) | 64 (≈ 187 µM) | CC(C)(C)C(O)C(=Cn1cncn1)Oc1ccc(Cl)cc1Cl (centres unmarked) [(D), reference compound] | 
< 1 | < 1 | < 1 | < 1 | < 1 | CC1(C)CCOC1=C(Oc1ccc(Cl)cc1Cl)n1ccnc1 [Example 3] | better antimycotic action
< 1 | 16 (≈ 52.3 µM) | 4 (≈ 13.1 µM) | 16 (≈ 52.3 µM) | > 64 | CC1(C)CCOC1=C(Oc1ccc(Cl)cc1)n1cncn1 [Example 11] | better antimycotic action

From patent US4487776A, “Azolyl-phenoxy-tetrahydrofuran-2-ylidene-methanes, a process for their preparation, and antimicrobial agents which contain these substances” (Bayer Aktiengesellschaft, priority 1982, dated 1984)
